Data published in the NIST ThermoML archive (doi:10.1016/j.tca.2018.01.023).

Assay: molar heat capacity at constant pressure
Settings: 101.33 kPa, Crystal, Small sample (50 mg) DSC

[Ca+2].[O]=[Mo](=[O])([O-])[O-] [calcium molybdate(VI)]
Settings | molar heat capacity at constant pressure [J/K/mol]
395.5 K | 127.3
396.4 K | 127.5
396.5 K | 127.4
397.4 K | 127.6
397.5 K | 127.6
398.4 K | 127.6
398.5 K | 127.7
399.4 K | 127.7
399.5 K | 127.8
400 K | 127.9
400.4 K | 127.8
400.5 K | 127.9
401.4 K | 127.9
401.5 K | 128
402.4 K | 128.1
402.5 K | 128.1
403.4 K | 128.2
403.5 K | 128.2
404.4 K | 128.3
404.5 K | 128.3
405.4 K | 128.5
405.5 K | 128.3
406.4 K | 128.6
406.5 K | 128.4
407.4 K | 128.7
407.5 K | 128.5
408.4 K | 128.7
408.5 K | 128.6
409.4 K | 128.8
409.5 K | 128.7
410 K | 128.9
410.4 K | 128.9
410.5 K | 128.8
411.4 K | 129
411.5 K | 128.9
412.4 K | 129
412.5 K | 129
413.4 K | 129.1
413.5 K | 129.1
414.4 K | 129.2
414.5 K | 129.2
415.4 K | 129.4
415.5 K | 129.3
416.4 K | 129.5
416.5 K | 129.4
417.4 K | 129.6
417.5 K | 129.5
418.4 K | 129.7
418.5 K | 129.6
419.4 K | 129.8
419.5 K | 129.7
420 K | 129.8
420.4 K | 129.9
420.5 K | 129.8
421.4 K | 130
421.5 K | 129.9
422.4 K | 130.1
422.5 K | 130
423.4 K | 130.2
423.5 K | 130.1
424.4 K | 130.3
424.6 K | 130.1
425.4 K | 130.4
425.6 K | 130.2
426.4 K | 130.5
426.6 K | 130.3
427.4 K | 130.6
427.6 K | 130.4
428.4 K | 130.7
428.6 K | 130.5
429.4 K | 130.7
429.6 K | 130.7
430 K | 130.7
430.4 K | 130.8
430.6 K | 130.9
431.4 K | 130.8
431.6 K | 131
432.4 K | 130.8
432.6 K | 131.1
433.4 K | 130.9
433.6 K | 131.2
434.4 K | 130.9
434.6 K | 131.3
435.4 K | 131
435.6 K | 131.3
436.4 K | 131
436.6 K | 131.3
437.4 K | 131.1
437.6 K | 131.4
438.4 K | 131.2
438.6 K | 131.4
439.4 K | 131.3
439.6 K | 131.4
440 K | 131.5
440.4 K | 131.4
440.6 K | 131.5
441.4 K | 131.5
441.6 K | 131.6
442.4 K | 131.6
442.6 K | 131.7
443.4 K | 131.7
443.6 K | 131.9
444.4 K | 131.7
444.6 K | 132
445.4 K | 131.8
445.6 K | 132.2
446.4 K | 132
446.6 K | 132.3
447.4 K | 132.1
447.6 K | 132.4
448.4 K | 132.2
448.6 K | 132.5
449.4 K | 132.3
449.6 K | 132.6
450 K | 132.4
450.4 K | 132.4
450.6 K | 132.6
451.4 K | 132.5
451.6 K | 132.6
452.4 K | 132.5
452.6 K | 132.7
453.4 K | 132.6
453.6 K | 132.7
454.4 K | 132.7
454.6 K | 132.7
455.4 K | 132.7
455.6 K | 132.7
456.4 K | 132.8
456.6 K | 132.7
457.4 K | 132.9
457.6 K | 132.8
458.4 K | 133
458.7 K | 132.9
459.4 K | 133
459.7 K | 133.1
460 K | 133.2
460.4 K | 133.1
460.7 K | 133.2
461.4 K | 133.2
461.7 K | 133.4
462.4 K | 133.3
462.7 K | 133.5
463.4 K | 133.4
463.7 K | 133.6
464.4 K | 133.5
464.7 K | 133.7
465.4 K | 133.6
465.7 K | 133.7
466.4 K | 133.6
466.7 K | 133.8
467.4 K | 133.7
467.7 K | 133.8
468.4 K | 133.8
468.7 K | 133.9
469.4 K | 133.9
469.7 K | 133.9
470 K | 133.9
470.4 K | 134
470.7 K | 133.9
471.4 K | 134
471.7 K | 134
472.4 K | 134
472.7 K | 134.1
473.4 K | 134.1
473.7 K | 134.2
474.4 K | 134.1
474.7 K | 134.3
475.4 K | 134.1
475.7 K | 134.4
476.4 K | 134.2
476.7 K | 134.4
477.4 K | 134.2
477.7 K | 134.4
478.4 K | 134.4
478.7 K | 134.5
479.4 K | 134.5
479.7 K | 134.6
480 K | 134.6
480.4 K | 134.6
480.7 K | 134.7
481.4 K | 134.7
481.7 K | 134.7
482.4 K | 134.8
482.7 K | 134.7
483.4 K | 134.9
483.7 K | 134.8
484.4 K | 135
484.7 K | 134.9
485.4 K | 135.1
485.7 K | 135
486.4 K | 135.2
486.7 K | 135.1
487.4 K | 135.2
487.7 K | 135.1
488.4 K | 135.3
488.7 K | 135.2
489.4 K | 135.4
489.7 K | 135.2
490 K | 135.3
490.4 K | 135.4
490.7 K | 135.3
491.4 K | 135.5
491.7 K | 135.4
492.4 K | 135.5
492.7 K | 135.6
493.4 K | 135.5
493.8 K | 135.7
494.4 K | 135.5
494.8 K | 135.7
